The molecules below were run on HUH7 cells (assay: Proliferation inhibitory effect for HUH7 cells (SRB assay)). Details: Homo sapiens, Huh-7, 72 hours, GI50, read-out: IC50 HUH7 Cell Line.
Format: cell-based
Experimental: Test Example 2: Measuring Inhibitory Effect of FGFR Inhibitor Using Cell Line
The test was carried out for identifying a proliferation inhibitory effect of the compound of the present invention for HUH7 cells. HUH7 cell lines were counted and 5.0×10^3 cells were inoculated per well in a 96 well plate. After the innoculation, the cells were cultured for 24 hours in a 37 □ and 5% carbon dioxide (CO2) incubator. On the next day, the synthesized compounds were each diluted and prepared. The diluted compounds were introduced to the cell lines inoculated the previous day by concentrations, and reacted for 72 hours in a 37 □ and 5% carbon dioxide (CO2) incubator. However, to a positive control to which the compound was not added, 0.1% dimethyl sulfoxide (DMSO) diluted with a medium was introduced. To a negative control plate, a trichloroacetic acid (TCA) solution was introduced, and fixed at 4 □. After reacting for 72 hours, the medium including the compound was removed, a TCA solution was added thereto, and the cells were fixed for 30 minutes to 60 minutes at 4 □. The TCA solution was discarded, the plate was washed off with distilled water and then dried in the air. A 0.4% sulforhodamin B (SRB) solution was added to the plate and dyed for 10 minutes at room temperature. The plate was washed off with tap water including a 1% acetic acid solution, and then dried in the air. A 10 mM Trizma base solution was added to dissolve the solid SRB. Using a microplate reader, optical density (O.D. value) was measured at 540 nm. A GI50 value of each of the compounds was calculated using GraphPad Prism V6.0 Software.

SMILES | IC50
C=CC(=O)N[C@H]1CCOC[C@H]1Nc1ncc2cc(-c3c(Cl)c(OC)cc(OC)c3Cl)c3nccn3c2n1 [Synthesis Example 4, N-((3S,4S)-3-((6-(2,6-dichloro-3,5-dimethoxyphenyl)imidazo[1′,2′:1,6]pyrido[2,3-d]pyrimidin-2-yl)amino)tetrahydro-2H-pyran-4-yl)acrylamide] | 50 to 500 nM
C=CC(=O)Nc1ccccc1Nc1ncc2cc(-c3c(Cl)c(OC)cc(OC)c3Cl)c3nccn3c2n1 [Synthesis Example 6, N-(2-((6-(2,6-dichloro-3,5-dimethoxyphenyl)imidazo[1′,2′:1,6]pyrido[2,3-d]pyrimidin-2-yl)amino)phenyl)acrylamide] | < 50 nM
COc1cc(OC)c(Cl)c(-c2cc3cnc(-c4cccc(N5CCOCC5)c4)nc3n3ccnc23)c1Cl [Synthesis Example 80, 4-(3-(6-(2,6-dichloro-3,5-dimethoxyphenyl)imidazo[1′,2′:1,6]pyrido[2,3-d]pyrimidin-2-yl)phenyl)morpholine] | > 500 nM
C=CC(=O)Nc1cccc(C)c1Nc1ncc2cc(-c3cc(OC)cc(OC)c3)c3nccn3c2n1 [compound 8] | > 500 nM
C=CC(=O)Nc1cc(F)ccc1Nc1ncc2cc(-c3c(Cl)c(OC)cc(OC)c3Cl)c3nccn3c2n1 [compound 14] | 50 to 500 nM
C=CC(=O)Nc1cc(Cl)ccc1Nc1ncc2cc(-c3c(Cl)c(OC)cc(OC)c3Cl)c3nccn3c2n1 [compound 15] | 50 to 500 nM
C#Cc1ccc(Nc2ncc3cc(-c4c(Cl)c(OC)cc(OC)c4Cl)c4nccn4c3n2)c(NC(=O)C=C)c1 [compound 16] | 50 to 500 nM
C=CC(=O)Nc1cc(C#N)ccc1Nc1ncc2cc(-c3c(Cl)c(OC)cc(OC)c3Cl)c3nccn3c2n1 [compound 17] | 50 to 500 nM
C=CC(=O)Nc1cc(C)ccc1Nc1ncc2cc(-c3c(Cl)c(OC)cc(OC)c3Cl)c3nccn3c2n1 [compound 19] | < 50 nM
C=CC(=O)Nc1cc(CC)ccc1Nc1ncc2cc(-c3c(Cl)c(OC)cc(OC)c3Cl)c3nccn3c2n1 [compound 20] | 50 to 500 nM
C=CC(=O)Nc1cc(C2CC2)ccc1Nc1ncc2cc(-c3c(Cl)c(OC)cc(OC)c3Cl)c3nccn3c2n1 [compound 21] | 50 to 500 nM
C=CC(=O)Nc1cc(C(C)C)ccc1Nc1ncc2cc(-c3c(Cl)c(OC)cc(OC)c3Cl)c3nccn3c2n1 [compound 22] | 50 to 500 nM
C=CC(=O)Nc1cc(N(C)C)ccc1Nc1ncc2cc(-c3c(Cl)c(OC)cc(OC)c3Cl)c3nccn3c2n1 [compound 24] | < 50 nM
C=CC(=O)Nc1cc(OC)ccc1Nc1ncc2cc(-c3c(Cl)c(OC)cc(OC)c3Cl)c3nccn3c2n1 [compound 26] | < 50 nM

More lines, now with the values ahead:

IC50 | SMILES
50 to 500 nM | C=CC(=O)NC1CCCC1Nc1ncc2cc(-c3c(Cl)c(OC)cc(OC)c3Cl)c3nccn3c2n1 (centres unmarked) [Synthesis Example 1, N-(2-((6-(2,6-dichloro-3,5-dimethoxyphenyl)imidazo[1′,2′:1,6]pyrido[2,3-d]pyrimidin-2-yl)amino)cyclopentyl)acrylamide]
50 to 500 nM | C=CC(=O)NC1CCCCC1Nc1ncc2cc(-c3c(Cl)c(OC)cc(OC)c3Cl)c3nccn3c2n1 (centres unmarked) [compound 2]
50 to 500 nM | C=CC(=O)NC1COCC1Nc1ncc2cc(-c3c(Cl)c(OC)cc(OC)c3Cl)c3nccn3c2n1 (centres unmarked) [compound 3]
50 to 500 nM | C=CC(=O)N[C@H]1CCOC[C@H]1Nc1ncc2cc(-c3c(F)c(OC)cc(OC)c3F)c3nccn3c2n1 [compound 5]
< 50 nM | C=CC(=O)Nc1cccc(Nc2ncc3cc(-c4c(Cl)c(OC)cc(OC)c4Cl)c4nccn4c3n2)c1 [compound 7]
50 to 500 nM | C=CC(=O)Nc1ccc(F)cc1Nc1ncc2cc(-c3c(Cl)c(OC)cc(OC)c3Cl)c3nccn3c2n1 [compound 12]
< 50 nM | C=CC(=O)Nc1ccc(N2CCN(CC)CC2)cc1Nc1ncc2cc(-c3c(Cl)c(OC)cc(OC)c3Cl)c3nccn3c2n1 [compound 13]
< 50 nM | C=CC(=O)Nc1cc(C2CCN(C)CC2)ccc1Nc1ncc2cc(-c3c(Cl)c(OC)cc(OC)c3Cl)c3nccn3c2n1 [compound 23]
< 50 nM | C=CC(=O)Nc1cc(OCC)ccc1Nc1ncc2cc(-c3c(Cl)c(OC)cc(OC)c3Cl)c3nccn3c2n1 [compound 27]
